Entries after “also recorded” stand apart in the source; their conditions may differ.
Legend:
CIPN mice model = assay: paclitaxel-induced CIPN mouse model, Von Frey test; type: in vivo
From the text: The procedure of CIPN mouse model and treatment regimen is shown in the upper panel.
Chemotherapy-induced peripheral neuropathy (CIPN) arises from the peripheral nerve damage by anticancer pharmacotherapy, leading to a progressive, enduring, and debilitating condition featuring pain, numbness, tingling and sensitivity to cold in the hands and feet. CIPN afflicts between 30% and 40% of patients undergoing chemotherapy, but currently no effective treatment for CIPN exists (del Pino BM, 2010). Chemotherapy drugs associated with CIPN include the antimitotic drugs such as paclitaxel and vinblastine, which are widely used for the treatment of a variety of cancer. To evaluate the neuroprotective efficacy of the compounds in vivo, we developed an aggressive CIPN mice model as presented in FIG. 5.
Mice were daily administrated with compound 20, at doses of 6, 2, 0.6 and 0 mg/kg (5 animals per group, i.p.) from one week prior to the initiation of paclitaxel (D-7) to 8th day after the initiation of paclitaxel (D8). After one-week pre-dosing with compound 20, mice were injected intraperitoneally with paclitaxel at a dose of 2 mg/kg on 4 alternate days (Day 0, 2, 4, 6). The Von Frey test was conducted the other day after the last administration of paclitaxel. […] Mice were daily administrated with compound NSC, at doses of 1, 3, and 10 mg/kg (5-6 animals per group, i.p.) from one week prior to the initiation of taxol (paclitaxel) (D-7) to 8th day after the initiation of paclitaxel (D8). After one-week pre-dosing with compound NSC, mice were injected intraperitoneally with paclitaxel at a dose of 2 mg/kg on 4 alternate days (Day 0, 2, 4, 6). The Von Frey test was conducted the other day after the last administration of taxol (paclitaxel).

NMNAT2 = NMNAT2 (Homo sapiens, UniProt Q9BZQ4); assay: doubly coupled NMNAT2 enzyme assay (NMNAT2 + ADH, NADH fluorescence); type: biochemical
Procedure: In a doubly coupled enzyme assay, the first enzyme NMNAT2 (it converted NMN to NAD) and the second enzyme ADH (it converted NAD to NADH) as well as compound NSC at a concentration of 3 μM were used, and the conversion of NMN to NADH was monitored by measuring fluorescence intensity of NADH at an excitation of 340 nm and an emission of 445 nm (Y axis) as a function of time (X axis).
A high-throughput screen was performed in search of compounds capable of activating NMNAT2, an important NAD biosynthetic enzyme. Roughly 50,000 synthetic organic chemicals were tested in a doubly coupled NMNAT assay that contains two enzymes, NMNAT2 and alcohol dehydrogenase (ADH). […] The conversion of NMN to NADH was monitored by measuring fluorescence intensity of NADH at an excitation of 340 nm and an emission of 445 nm (Y axis) as a function of time (X axis). Fluorescence at ex340 nm/em445 nm (F340/445) was measured continuously for 30 minutes at room temperature to establish the reaction velocity. […] The reaction rate is expressed as the concentration of NADH (equivalent to NAD) formed per minute. Since the concentration of NADH is reflected by F340/445, the reaction rate is thus the slope of the linear kinetic curve of F340/445 versus time at time t, written as F340 445/min, which is calculated in the equation: reaction rate=ΔF340/445/Δt. […]

NMNAT1 = NMNAT1 (Homo sapiens, UniProt Q9HAN9); assay: doubly coupled enzyme assay prepared for NMNAT1; type: biochemical; settings: 3 μM compound, FIG. 3, NMNAT isoform comparison
Procedure: (§1) A doubly coupled enzyme assay was prepared for NMNAT1, NMNAT2 and NMNAT3. NMNAT activation is normalized, where the reaction rate of NMNAT in the presence of 3 μM of compound NSC was compared to that of a DMSO-treated control.
(§2) These compounds might represent direct activators of the NMNAT2 enzyme.

NMNAT3 = NMNAT3 (Homo sapiens, UniProt Q96T66); assay: doubly coupled enzyme assay prepared for NMNAT3; type: biochemical; settings: 3 μM compound, FIG. 3, NMNAT isoform comparison
Procedure: as §1, §2

SARM1-expressing cells = assay: protection from SARM1-mediated toxicity, cell viability by CellTiter-Glo; type: cell-based; settings: 0.1, 0.3, 1, 3, 10, and 30 μM, 24 hours, FIG. 4
Procedure: SARM1-expressing cells were treated with compound NSC at 0.1, 0.3, 1, 3, 10, and 30 μM. After 24 hours, the cell images in bright field were taken under the microscope before cell viability was determined by measuring ATP levels using CellTiter-Glo assay kit.
In the first assay, the compounds were added at 1, 3, 10, 30 and 100 μM in the reaction mixture. The reaction rate of NMNAT2 enzyme was calculated as the slope of the F340/445 versus time curve, and was normalized by DMSO-treated control. The dose response curves were plotted to assess the effects of individual compounds on NMNAT2 enzymatic activity. […] After 24 hours, the cell survival was measured by Cell-titer Glo kit, and normalized by DMSO-treated control. […]
Compounds NSC and 1-40 were evaluated in two independent assays: an in vitro enzyme assay measuring activation of NMNAT2 and a cell-based assay measuring the degree of protection from SARM1 expression in cells. […] The conversion of NMN to NADH was monitored by measuring fluorescence intensity of NADH at an excitation of 340 nm and an emission of 445 nm (Y axis) as a function of time (X axis). Fluorescence at ex340 nm/em445 nm (F340/445) was measured continuously for 30 minutes at room temperature to establish the reaction velocity. The reaction rate of NMNAT2 enzyme was expressed as the concentration of NADH (equivalent to NAD) formed per minute. […]

[1] = test system: alcohol dehydrogenase (ADH); assay: ADH enzyme assay with NAD as substrate (counter-screen); type: biochemical; settings: 5 μM compound, 50 μM NAD
Procedure: In a secondary screen, the compounds with the relative reaction rate higher than 150% are cherry-picked and retested in triplicates in the doubly coupled NMNAT2 assay. […] Briefly, the ADH enzyme reaction was prepared to contain 50 mM Tris-Cl (pH 8.0), 12 mM MgCl2, 1.5% ethanol, 10 mM semicarbizide, 0.2% bovine serum albumin (BSA), and 0.04 units ADH. 40 µl of the mixture was dispensed into 384-well black polypropylene plates, and individual compounds were added to each well at a final concentration of 5 μM. The reaction was initiated by addition of 50 μM NAD followed by gentle mixing in the plate. The conversion of NAD to NADH was monitored by measuring fluorescence intensity of NADH at an excitation of 340 nm and an emission of 445 nm (Y axis) as a function of time (X axis). Fluorescence at ex340 nm/em445 nm was measured continuously for 30 minutes to establish the kinetic reaction curve of F340/445 versus time. The reaction rates were calculated as described in the NMNAT2 assay. The relative ADH enzyme reaction rate in the presence of each compound is normalized by DMSO-treated control.

Sequence of NMNAT2 (Q9BZQ4 whole entry, species assumed): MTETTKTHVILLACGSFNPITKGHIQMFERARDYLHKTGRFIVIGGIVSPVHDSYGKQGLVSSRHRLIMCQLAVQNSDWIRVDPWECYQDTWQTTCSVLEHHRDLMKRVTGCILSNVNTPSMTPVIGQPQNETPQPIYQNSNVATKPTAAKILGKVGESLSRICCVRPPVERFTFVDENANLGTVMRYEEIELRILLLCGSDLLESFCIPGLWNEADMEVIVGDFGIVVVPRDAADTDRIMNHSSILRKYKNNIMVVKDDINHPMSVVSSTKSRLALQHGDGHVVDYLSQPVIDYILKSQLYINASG
Sequence of NMNAT1 (Q9HAN9 whole entry, species assumed, canonical isoform): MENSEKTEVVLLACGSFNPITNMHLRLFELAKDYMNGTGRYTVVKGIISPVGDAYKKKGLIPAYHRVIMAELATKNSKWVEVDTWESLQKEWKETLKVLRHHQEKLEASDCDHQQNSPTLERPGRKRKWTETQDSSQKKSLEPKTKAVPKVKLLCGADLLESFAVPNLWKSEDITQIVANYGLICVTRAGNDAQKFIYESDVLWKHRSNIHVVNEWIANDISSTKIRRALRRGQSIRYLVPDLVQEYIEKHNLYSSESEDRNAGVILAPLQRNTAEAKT
Sequence of NMNAT3 (Q96T66 whole entry, species assumed, canonical isoform): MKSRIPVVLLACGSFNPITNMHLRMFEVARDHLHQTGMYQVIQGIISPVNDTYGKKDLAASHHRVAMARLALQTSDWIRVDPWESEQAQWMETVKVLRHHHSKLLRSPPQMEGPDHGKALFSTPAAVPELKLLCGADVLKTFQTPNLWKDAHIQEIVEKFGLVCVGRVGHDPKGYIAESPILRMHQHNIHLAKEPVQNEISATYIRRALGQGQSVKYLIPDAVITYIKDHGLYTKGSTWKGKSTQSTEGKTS

SMILES	mice paw pressure threshold (Von Frey test) (CIPN mice model; 3 mg/kg/day i.p., D-7 to D8, paclitaxel 2 mg/kg on days 0, 2, 4, 6, FIG. 6)	mice paw pressure threshold (Von Frey test) (CIPN mice model; 10 mg/kg/day i.p., D-7 to D8, paclitaxel 2 mg/kg on days 0, 2, 4, 6, FIG. 6)	mice paw pressure threshold (Von Frey test) (CIPN mice model; FIG. 6 legend, dose not stated there)	NMNAT2 activation (reaction rate compared to DMSO-treated control) (NMNAT2; 3 μM compound, FIG. 3, NMNAT isoform comparison)	level of activation in the doubly coupled NMNAT2 assay (NMNAT2; high-throughput screen hits, FIG. 2 with compound at 3 μM)	NMNAT1 activation (reaction rate compared to DMSO-treated control) (NMNAT1)	NMNAT3 activation (reaction rate compared to DMSO-treated control) (NMNAT3)	protection of cultured cells against SARM1-mediated toxicity (cell viability, ATP levels) (SARM1-expressing cells)	activity in the ADH assay (relative ADH enzyme reaction rate) [1]	mice paw pressure threshold (Von Frey test) (CIPN mice model; 6 mg/kg/day i.p., D-7 to D8, paclitaxel 2 mg/kg on days 0, 2, 4, 6, FIG. 5)
C/C(=N\NC(=S)N1CCC1)c1ccccn1 [Compound NSC, (E)-N′-(1-(pyridin-2-yl)ethylidene)azetidine-1-carbothiohydrazide]	significantly increased the mice paw pressure threshold	significantly increased the mice paw pressure threshold	significantly increased the mice paw pressure threshold	activated NMNAT2 strongly; also recorded: activates NMNAT2	most robust level of activation; also recorded: NMNAT2 activation	NMNAT1 weakly; also recorded: activates NMNAT2 and NMNAT1	not NMNAT3	protects cultured cells against SARM1-mediated toxicity	inactive in the ADH assay	–
C/C(=N\NC(=S)NN)c1ccccn1 [Compound 20, (E)-N′-(1-(pyridin-2-yl)ethylidene)hydrazinecarbothiohydrazide]	–	–	–	–	–	–	–	–	–	significantly increased the mice paw pressure threshold

Reference: patent US20250059160A1, “Chemical Activators of Nicotinamide Mononucleotide adenylyltransferase 2 (NMNAT2) and Uses Thereof” (Tsinghua University, priority 2018, published 2025)
